Assay results from patent US20090111774A1, “PMEA LIPID CONJUGATES” (Luitpold Pharmaceuticals, Inc., priority 2007, published 2009).
Several values for one entry are separate records, joined by “and”; a condition that tells them apart may be missing. Equal entries are not always repeated.

Columns and labels:
[1] = system: microtubule assembly; conditions: Bradley et al., Clin. Cancer Res. 2001; cited from earlier work
[2] = system: SARS; assay type: cell-based
[3] = system: HSV-2; assay: In vitro antiviral screening (selectivity index), HSV-2; assay type: cell-based, herpes simplex virus type 2
[4] = system: Flu A; assay type: cell-based
[5] = system: HCMV; assay: In vitro antiviral screening (selectivity index), HCMV; assay type: cell-based, herpes cytomegalovirus
[6] = system: Vaccinia; assay type: cell-based
[7] = system: Flu B; assay type: cell-based
[8] = system: Yellow Fever; assay type: cell-based
[9] = system: VZV; assay: In vitro antiviral screening (selectivity index), VZV; assay type: cell-based, varicella-zoster virus
[10] = system: Cowpox; assay type: cell-based
[11] = system: PIV; assay type: cell-based
[12] = system: Dengue; assay: In vitro antiviral screening (selectivity index), Dengue; assay type: cell-based
[13] = system: RSV A; assay: In vitro antiviral screening (selectivity index), RSV A; assay type: cell-based
[14] = system: BK (polyoma); assay type: cell-based, polyoma (BK) virus
[15] = system: RV 2; assay type: cell-based
[16] = system: Measles; assay: In vitro antiviral screening (selectivity index), Measles (NR assay); assay type: cell-based, measles virus
[17] = system: Rift Valley Fever; assay type: cell-based
[18] = system: Tacaribe; assay type: cell-based
[19] = system: HPV-11; assay: In vitro antiviral screening (selectivity index), HPV-11; assay type: cell-based; conditions: human papillomavirus (HPV)
[20] = system: HSV-1; assay: In vitro antiviral screening (selectivity index), HSV-1; assay type: cell-based, herpes simplex virus type 1
[21] = system: VEE; assay type: cell-based
[22] = system: Punta Toro; assay type: cell-based
[23] = system: Pichinde; assay type: cell-based
[24] = system: Adeno; assay type: cell-based
[25] = target: cellular DNA polymerase alpha (Homo sapiens, UniProt P09884); conditions: cited from earlier work
Chain of cellular DNA polymerase alpha (P09884 whole entry): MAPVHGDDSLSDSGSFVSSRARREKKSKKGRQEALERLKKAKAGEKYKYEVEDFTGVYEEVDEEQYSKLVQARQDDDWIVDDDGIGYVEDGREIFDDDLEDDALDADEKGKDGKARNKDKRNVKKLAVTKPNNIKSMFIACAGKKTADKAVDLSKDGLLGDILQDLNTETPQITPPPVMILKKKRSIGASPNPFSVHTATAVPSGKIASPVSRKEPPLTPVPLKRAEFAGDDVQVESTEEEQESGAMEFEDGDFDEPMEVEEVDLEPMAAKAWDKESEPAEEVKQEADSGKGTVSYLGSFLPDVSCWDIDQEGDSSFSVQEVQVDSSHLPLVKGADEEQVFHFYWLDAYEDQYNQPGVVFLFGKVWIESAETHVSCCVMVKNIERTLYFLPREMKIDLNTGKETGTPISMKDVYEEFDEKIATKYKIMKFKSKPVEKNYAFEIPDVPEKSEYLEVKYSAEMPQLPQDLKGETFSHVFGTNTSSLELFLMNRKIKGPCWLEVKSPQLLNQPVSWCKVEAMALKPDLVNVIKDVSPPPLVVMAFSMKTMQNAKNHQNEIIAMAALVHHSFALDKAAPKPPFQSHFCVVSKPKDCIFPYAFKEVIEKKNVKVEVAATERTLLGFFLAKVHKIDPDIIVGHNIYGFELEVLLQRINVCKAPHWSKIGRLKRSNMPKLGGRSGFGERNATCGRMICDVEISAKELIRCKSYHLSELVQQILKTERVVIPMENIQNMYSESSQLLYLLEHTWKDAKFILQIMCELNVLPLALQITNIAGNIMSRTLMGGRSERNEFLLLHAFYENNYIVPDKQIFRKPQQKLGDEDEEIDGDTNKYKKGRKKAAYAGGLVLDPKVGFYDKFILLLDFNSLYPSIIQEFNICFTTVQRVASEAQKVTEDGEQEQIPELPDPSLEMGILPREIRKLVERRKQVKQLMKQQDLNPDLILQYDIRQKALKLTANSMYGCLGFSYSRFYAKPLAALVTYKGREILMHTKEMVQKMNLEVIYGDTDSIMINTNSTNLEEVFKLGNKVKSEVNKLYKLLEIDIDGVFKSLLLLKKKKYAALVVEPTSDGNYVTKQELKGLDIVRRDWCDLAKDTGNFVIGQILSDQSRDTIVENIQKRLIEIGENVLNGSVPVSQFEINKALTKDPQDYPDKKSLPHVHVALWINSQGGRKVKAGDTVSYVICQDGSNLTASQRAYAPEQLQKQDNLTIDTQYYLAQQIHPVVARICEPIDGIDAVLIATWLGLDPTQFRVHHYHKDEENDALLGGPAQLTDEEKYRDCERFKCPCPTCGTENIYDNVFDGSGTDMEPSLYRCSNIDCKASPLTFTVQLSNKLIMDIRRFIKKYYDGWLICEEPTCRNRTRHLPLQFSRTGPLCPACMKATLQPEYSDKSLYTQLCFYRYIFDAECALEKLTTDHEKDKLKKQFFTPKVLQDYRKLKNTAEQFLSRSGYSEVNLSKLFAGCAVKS

[26] = cited from earlier work
[27] = target: human immunodeficiency virus-specified reverse transcriptase (Human immunodeficiency virus type 1 group M subtype B, UniProt P04585); conditions: HIV reverse transcriptase; cited from earlier work

CC/C=C\C/C=C\C/C=C\C/C=C\C/C=C\C/C=C/CCC(=O)O[C@@H](C(=O)O[C@H]1C[C@@]2(O)[C@@H](OC(=O)c3ccccc3)C3[C@](C)(C(=O)[C@H](OC(C)=O)C(=C1C)C2(C)C)[C@@H](O)C[C@H]1OC[C@@]31OC(C)=O)[C@@H](NC(=O)c1ccccc1)c1ccccc1 (stereo partly drawn) [DHA-paclitaxel]
activity as intact conjugate [1]: inactive as intact conjugates

CCCCCCCC/C=C\CCCCCCCC(=O)NC1=NC=NC2C1N=CN2CCOCP(=O)([O-])[O-].[Na+].[Na+] (stereo not drawn) [Formula III, PMEA-oleyl amide]
SI (selectivity index) [2]: 1
SI (selectivity index) ([3]; HSV-2 (1), first replicate): >8.5
SI (selectivity index) ([3]; HSV-2 (2), second replicate): 5.7
antiviral activity / sensitivity of virus ([3]; HSV-2, in vitro): sensitive only to the compound of Formula III
SI (selectivity index) [4]: 1
SI (selectivity index) [5]: 1
SI (selectivity index) [6]: 1 and >2
SI (selectivity index) [7]: 1
SI (selectivity index) [8]: 1
antiviral activity / sensitivity of virus [9]: sensitive
SI (selectivity index) [10]: 1
SI (selectivity index) [11]: 1
SI (selectivity index) [12]: 1
SI (selectivity index) [13]: 1
SI (selectivity index) [14]: >213
antiviral activity / sensitivity of virus [14]: sensitive
SI (selectivity index) [15]: 1
SI (selectivity index) ([16]; Measles (NR assay)): >20
antiviral activity / sensitivity of virus ([16]; measles virus, in vitro): sensitive only to the compound of Formula III
SI (selectivity index) [17]: 1
SI (selectivity index) [18]: 2
antiviral activity / sensitivity of virus [19]: sensitive only to the compound of Formula III
SI (selectivity index) ([20]; HSV-1 (1), first replicate): >17.8
SI (selectivity index) ([20]; HSV-1 (2), second replicate): >143
antiviral activity / sensitivity of virus ([20]; HSV-1, in vitro): sensitive only to the compound of Formula III
SI (selectivity index) [21]: 1
SI (selectivity index) [22]: 1
SI (selectivity index) [23]: 1
SI (selectivity index) [24]: 1

Nc1ncnc2c1ncn2CCOCP(=O)(O)OP(=O)(O)OP(=O)(O)O [PMEApp]
Ki/Km [25]: 0.60
intracellular half-life [26]: 16 to 18 h
Ki/Km [27]: 0.01
